From PMC8147976, “Partitioning and Spatial Distribution of Drugs in Ocular Surface Tissues” (Pharmaceutics, 2021)
Read-outs that look alike come from different tables or passages of the source.

Assays:
[1] = Drug distribution in porcine ocular tissues ex vivo, comparison across tissues; assay type: in vitro ADME; settings: for time to reach equilibrium in tissue: porcine tissues ex vivo, Figure 1
Description: Cornea. […] Bulbar conjunctiva.

[2] = cited from earlier work
[3] = de-epithelized vs intact cornea; ref [29],[46]; cited from earlier work
[4] = for ratio of signal against twice the signal of propranolol, Epithelium 10 min / ratio of signal against twice the signal of propranolol, Epithelium 60 min: rabbit corneal epithelium; for ratio of signal against twice the signal of propranolol, Epithelium 10 min / ratio of signal against twice the signal of propranolol, Stroma 10 min: 10 min after eye drop; for ratio of signal against twice the signal of propranolol, Epithelium 10 min / ratio of signal against twice the signal of propranolol, Epithelium 60 min / ratio of signal against twice the signal of propranolol, Stroma 10 min / ratio of signal against twice the signal of propranolol, Stroma 60 min: MALDI-IMS; for ratio of signal against twice the signal of propranolol, Epithelium 60 min / ratio of signal against twice the signal of propranolol, Stroma 60 min: 60 min after eye drop; for ratio of signal against twice the signal of propranolol, Stroma 10 min / ratio of signal against twice the signal of propranolol, Stroma 60 min: rabbit corneal stroma
Method: Three months old female New Zealand White rabbits, 2.5–2.8 kg (Envigo Laboratories, Blackthron, Bicester, UK), were used in the study to determine the distribution of drugs in the cornea. […] The rabbits were sacrificed by injecting a lethal dose (2 mL/kg) of pentobarbital (Mebunat vet 60 mg/mL; Orion Pharma, Finland) into the marginal ear vein at 10, 20, and 60 min post-dosing. The eyes were removed and snap-frozen with liquid nitrogen in plastic tubes and stored at −80 °C until sample preparation and analysis with MALDI-IMS.
The frozen eyes were mounted onto a chuck using an optimal cutting temperature compound (Sakura Finetek, Torrance, CA, USA). The samples were sectioned to 20 μm or 35 μm thickness at −20 °C on a Leica CM Cryostat (S3050, Leica Microsystems GmbH, Wetzlar, Germany) and collected on a cryo-film (3C16UF, SECTION-LAB Co. Ltd., Yokohama, Japan) by a modified Kawamoto method. The film was subsequently mounted onto a microscope glass slide using a double-sided copper tape, and the sample slides were dried in a lyophilization chamber. The slides were washed twice with 50 mM ammonium formate for 10 s and dried in a vacuum desiccator. The sample slides contained sections from three eyes from the eye drop experiment and three blanks. The matrix α-cyano-4hydroxycinnamic acid (CHCA) (7 mg/mL in 50% acetonitrile containing 1% trifluoro acetic acid) (Sigma-Aldrich, St. Louis, MO, USA) was added via spray deposition using 10 passes, flow rate of 100 μL/min, temperature of 77 °C, track spacing of 2.5 mm, and velocity of 1300 mm/min (TM-Sprayer, HTX Technologies, Chapel Hill, NC, USA).
Fourier transform-ion cyclotron resonance (FT-ICR) MALDI-IMS was performed using a Bruker 7T SolariX XR mass spectrometer (Bruker Daltonics, Bremen, Germany) at 50 μm spatial resolution for the corneal area and 150 μm spatial resolution for the rest of the eye. […] MALDI images of each signal were plotted with a 5 mDa mass window using flexImaging^TM software (v4.1, Bruker Daltonics, Bremen, Germany) with datasets normalized by the RMS method and pixel interpolation.
The data for calculation was obtained by taking six crosscuts through the cornea; no normalization was used.

[5] = ex vivo, 180 min epithelial side exposure, donor 2 ng/µL
[6] = ex vivo, 180 min epithelial side exposure, donor 2 ng/µL; remark: listed apart in the source
[7] = ex vivo, 180 min epithelial side exposure, donor 2 ng/µL; remark: listed apart in the source
in vitro = settings: pig, pH 7.4
[8] = set-up: method as in PMID 3246568; settings: inferior drug insert application, rabbit; ref [56]; cited from earlier work
[9] = n-octanol/buffer solution distribution coefficient at pH 7.4, ref [10],[44]

CC(C)NCC(O)COc1ccc(CC(N)=O)cc1 (stereo not drawn) [Atenolol]
difference in concentration between corneal epithelium, corneal stroma and conjunctiva ([1]; ex vivo): two-fold
time to reach equilibrium in tissue [1]: ≈ 30 min

CC(C)NCC(O)COc1ccc(CCOCC2CC2)cc1 (stereo not drawn) [Betaxolol]
time to reach equilibrium in tissue [1]: ≈ 60 min
Log D7.4 ([2]; as listed in Table S2): 0.43
Log D7.4 [2, 9]: 0.43
change of permeability in de-epithelized corneas [3]: only modest or no changes

COCCc1ccc(OCC(O)CNC(C)C)cc1 (stereo not drawn) [Metoprolol]
Log D7.4 ([2]; as listed in Table S2): −0.5

CC(C)(C)NCC(O)COc1cccc2c1CC(O)C(O)C2 (stereo not drawn) [Nadolol]
time to reach equilibrium in tissue [1]: ≈ 30 min
Log D7.4 [2, 9]: −1.54

CC(C)NCC(O)COc1cccc2[nH]ccc12 (stereo not drawn) [Pindolol]
ratio of signal against twice the signal of propranolol, Epithelium 10 min [4]: 0.21 ± 0.01
ratio of signal against twice the signal of propranolol, Epithelium 60 min [4]: 0.356± 0.08
ratio of signal against twice the signal of propranolol, Stroma 10 min [4]: 0.57 ± 0.00
ratio of signal against twice the signal of propranolol, Stroma 60 min [4]: 0.83 ± 0.13
Log D7.4 ([2]; as listed in Table S2): 0.06
Log D7.4 [2, 9]: −0.5

CC(C)NCC(O)COc1cccc2ccccc12 (stereo not drawn) [Propranolol]
time to reach equilibrium in tissue [1]: ≈ 60 min
MALDI-IMS signal intensity in corneal tissues and aqueous humor ([4]; rabbit, in vivo): highest intensity
concentration in corneal epithelium [5]: 9.46 ng/mg tissue
concentration in corneal stroma [6]: 0.83 ng/mg
concentration in conjunctiva [7]: 1.24 ng/mg
Kp at 3 h, 2 µg/mL (in vitro): 4.7
change of permeability in de-epithelized corneas [3]: only modest or no changes

CC(C)(C)NC[C@H](O)COc1nsnc1N1CCOCC1 [Timolol]
time to reach equilibrium in tissue [1]: ≈ 30 min
ratio of signal against twice the signal of propranolol, Epithelium 10 min [4]: 0.19 ± 0.02
ratio of signal against twice the signal of propranolol, Epithelium 60 min [4]: 0.25 ± 0.08
ratio of signal against twice the signal of propranolol, Stroma 10 min [4]: 0.36 ± 0.01
ratio of signal against twice the signal of propranolol, Stroma 60 min [4]: 0.45 ± 0.17
MALDI-IMS signal in corneal tissues and aqueous humor ([4]; rabbit, in vivo): below the limit of detection in many pixels
Log D7.4 [2, 9]: −1.43
timolol levels in the inferior relative to the superior cornea [8]: 4–6 fold
